A melting point compilation (Tetko et al.)
Non-standard residues stand in square brackets, D forms with d. Residues, ends and D or L forms follow the SMILES beside them. *: point of attachment. X5 = CCC(=O)OC1(C(=O)C(O)O*)CCC2C3CC(C)C4=CC(=O)C=CC4(C)C3C(O)CC21C; Phe(2-Me) = Cc1ccccc1C[CH](N)C(=O)O; Tle = CC(C)(C)[CH](N)C(=O)O; X3 = CC(C)(C)OC(=O)CCC(=O)*; Cbz = O=C(OCc1ccccc1)*; Pentanoyl = CCCCC(=O)*; Boc = CC(C)(C)OC(=O)*; OBn = c1ccc(CO*)cc1; OtBu = CC(C)(C)O*

In the case of COc1cc(OC)c(/C=C/C(c2ccc(OC)c(NCCCC(=O)O)c2)S(=O)(=O)C(/C=C/c2c(OC)cc(OC)cc2OC)c2ccc(OC)c(NCCCC(=O)O)c2)c(OC)c1 (centres undefined), the melting point is reported as 86 to 88 °C.

Compound CCCCCCCCCCCCc1c2c(c(CCCCCCCCCCCC)c3c1-c1ccc(Br)cc1C3=C(C#N)C#N)-c1ccc(Br)cc1C2=C(C#N)C#N has a melting point of 136 to 137 °C.

In the case of CSCCC(NC(=O)C(CCC(N)=O)NC(=O)OC(C)(C)C)C(=O)NC(C)C(=O)NC(C(=O)NC(CCCCNC(=O)OCc1ccccc1)C(=O)OCc1ccccc1)C(C)C (centres undefined) (Boc-QMAVK(Cbz)-OBn; configuration not given here), the melting point is reported as 238 to 241 °C.

For COc1cc(OC)c(/C=C/C(c2ccc(OC)c(NC(=O)C(F)(F)C(F)(F)F)c2)S(=O)(=O)C(/C=C/c2c(OC)cc(OC)cc2OC)c2ccc(OC)c(NC(=O)C(F)(F)C(F)(F)F)c2)c(OC)c1 (centres undefined), the melting point was 179 to 180 °C.

For O=S(=O)(CCCCCOc1ccc(C2=C(c3ccc(OC4CCCCO4)cc3)CCCc3cc(OC4CCCCO4)ccc32)cc1)CCCC(F)(F)C(F)(F)F (centres undefined), the melting point was 108 to 110 °C.

For [C-]#[N+]CCCS(=O)(=O)c1ccc(C)cc1, the melting point was 37 to 38 °C.

CCCCCCCCCCCCCCCCCC(=O)OCC(COC(=O)C(N)Cc1ccc(N(CCCl)CCCl)cc1)OC(=O)CCCCCCCCCCCCCCCCC (centres undefined) gave a melting point of 82 to 83 °C.

With O=C(O)Cc1cc(I)c(Oc2cc(I)c(OCC3CO3)c(I)c2)c(I)c1 (centres undefined) the melting point was 176 °C.

With CS(C)(=O)=NC(=O)c1cc(Oc2ccc(C(F)(F)F)cc2Cl)ccc1[N+](=O)[O-] the melting point was 122 °C.

Work on COc1cc(OC)c(/C=C/C(c2ccc(OC)c(NC(=O)C(F)(F)F)c2)S(=O)(=O)C(/C=C/c2c(OC)cc(OC)cc2OC)c2ccc(OC)c(NC(=O)C(F)(F)F)c2)c(OC)c1 (centres undefined) yielded a melting point of 179 to 180 °C.

In the case of CCOC(=O)OC1=C(c2c(C)cc(C)cc2C)C(=O)NC12CCN(N(C)C)CC2, the melting point is reported as 162 to 166 °C.

Work on CCCc1[nH]c2ccccc2c1C1(c2ccc(N(CC)CC)cc2OCCCCOc2cc(N(CC)CC)ccc2C2(c3c(CCC)[nH]c4ccccc34)OC(=O)c3ccccc32)OC(=O)c2ccccc21 (centres undefined) yielded a melting point of 140 °C.

FC(F)(F)C(F)(F)C(F)(F)C(F)(F)C(F)(F)C(F)(F)c1nc2c(Br)sc(Br)c2nc1C(F)(F)C(F)(F)C(F)(F)C(F)(F)C(F)(F)C(F)(F)F showed a melting point of 46 to 47 °C.

O=C(Oc1cccc2cc3cccc(OC(=O)c4ccccc4Oc4ccccc4)c3c(OC(=O)c3ccccc3Oc3ccccc3)c12)c1ccccc1Oc1ccccc1 gave a melting point of 110 °C.

For O=C(NCCCCCCCCCCCCNC(=O)C(O)C(O)C(OC1OC(CO)C(O)C(O)C1O)C(O)CO)C(O)C(O)C(OC1OC(CO)C(O)C(O)C1O)C(O)CO (centres undefined), the melting point was 79 to 81 °C.

Work on Brc1cc(Br)c(Oc2nc(Oc3c(Br)cc(Br)cc3Br)nc(Oc3c(Br)cc(Br)cc3Br)n2)c(Br)c1 yielded a melting point of 215 to 218 °C.

Work on O=S(=O)(OCC(I)C(F)(F)C(F)(F)C(F)(F)C(F)(F)F)OCC(I)C(F)(F)C(F)(F)C(F)(F)C(F)(F)F (centres undefined) yielded a melting point of 45 to 48 °C.

For CCNC(Cc1cc(I)c(Oc2cc(I)c(O)c(I)c2)c(I)c1)C(=O)O (centres undefined), the melting point was 191 to 193 °C.

With CCCCCCCCCCCCS(=O)(=O)Nc1cc(C(=O)Nc2ccc(Cl)c(Cl)c2)ccc1OC the melting point was 151 to 152 °C.

C=CCOc1nc(NC(C)(C)CC(C)(C)C)nc(N(CCCCCCN(c2nc(NC(C)(C)CC(C)(C)C)nc(OCC=C)n2)C2CC(C)(C)NC(C)(C)C2)C2CC(C)(C)NC(C)(C)C2)n1 showed a melting point of 210 to 212 °C.

In the case of CCCCCCCCCCCCCCCCCCCCCCCCCCCCCCCCCCCCCCCCCCCC, the melting point is reported as 87.5 to 88 °C.

CC(C)[C@H](NC(=O)N(C)Cc1csc(NC(=O)OC(C)(C)C)n1)C(=O)N[C@@H](Cc1ccccc1)[C@H](O)[C@@H](O)[C@H](Cc1ccccc1)NC(=O)[C@@H](NC(=O)N(C)Cc1csc(NC(=O)OC(C)(C)C)n1)C(C)C showed a melting point of 138 to 140 °C.

Compound CCCCCCCCCCCCCCCCCCN(CCCCCCCCCCCCCCCCCC)C(=O)c1c(NS(=O)(=O)c2cccc(C(C)=O)c2)cc2ccccc2c1OC(=O)c1ccccc1 has a melting point of 91 to 93 °C.

CCCCCCCCCCCCCCCCCCOc1cc(OCCCOc2ccccc2)cc(N(CC(=O)OCc2ccccc2)CC(=O)OCc2ccccc2)c1 showed a melting point of 59 to 61 °C.

For CCCCCCCCOc1ccc(NS(=O)(=O)c2cc(C(C)(C)CC(C)(C)C)ccc2OCCCCCCCC)cc1S(=O)(=O)NCC(C)c1nn2nc(C)c(Cl)c2[nH]1 (centres undefined), the melting point was 129 to 131 °C.

Work on O=S(=O)(C(/C=C/c1c(F)c(F)c(F)c(F)c1F)c1c(F)c(F)c(F)c(F)c1F)C(/C=C/c1c(F)c(F)c(F)c(F)c1F)c1c(F)c(F)c(F)c(F)c1F (centres undefined) yielded a melting point of 137 to 139 °C.

CC1(C)CC(N(c2nc(N(C3CC(C)(C)N(O)C(C)(C)C3)C3CC(C)(C)N(O)C(C)(C)C3)nc(N(C3CC(C)(C)N(O)C(C)(C)C3)C3CC(C)(C)N(O)C(C)(C)C3)n2)C2CC(C)(C)N(O)C(C)(C)C2)CC(C)(C)N1O showed a melting point of 258 to 261 °C.

c1ccc(C2CN3CCSC3=N2)cc1 (centres undefined) showed a melting point of 60 to 61.5 °C.

N=C(Nc1ccc2[nH]cc(C3=CCN4CCCC4C3)c2c1)c1cccs1 (centres undefined) gave a melting point of 122 to 124 °C.

Compound Nc1ncc(Br)cc1[N+](=O)[O-] has a melting point of 209 °C.

With COc1cc([N+](=O)[O-])cc(C(=O)C2CCCN(C(=O)c3cc([N+](=O)[O-])cc(OC)c3OC)NNN(C(=O)c3cc([N+](=O)[O-])cc(OC)c3OC)CCCC(C(=O)c3cc([N+](=O)[O-])cc(OC)c3OC)CC2)c1OC (centres undefined) the melting point was 232 to 235 °C.

With O=C(c1ccc(I)cc1)c1cc2c3c(c1)C(c1cccc(Cl)c1)CC(=O)N3CC2 (centres undefined) the melting point was 275 °C.

For COC(=O)c1ccccc1CN1C(=O)C2(COc3cc4c(cc32)OCO4)c2ccccc21 (centres undefined), the melting point was 166 to 167 °C.

Compound CC(=O)ON=C(N)c1ccc(CN(CCCCNC(=O)OC(C)(C)C)C(=O)CNC(=O)CN(CCc2ccccc2)S(=O)(=O)c2ccc(Cl)c(C)c2Cl)cc1 has a melting point of 100 °C.

O=C(OCCCCCCOc1ccc(-c2ccccc2)cc1)c1cc([N+](=O)[O-])ccc1-c1ccc([N+](=O)[O-])cc1C(=O)OCCCCCCOc1ccc(-c2ccccc2)cc1 showed a melting point of 121 to 122 °C.

CCC(Br)=C1NC(=O)N(C(C(=O)Nc2cc(NC(=O)C(CC)Oc3ccc(C(C)(C)CC)cc3C(C)(C)CC)ccc2Cl)C(=O)c2ccc(OC)cc2)C1=O (centres undefined) showed a melting point of 112 to 114 °C.

Compound CC(=O)OCC1OC(SCCCCCCOC2CCC3(C)C(=CCC4C3CCC3(C)C(C(C)CCCC(C)C)CCC43)C2)C(OC(C)=O)C(OC(C)=O)C1OC(C)=O (centres undefined) has a melting point of 103 to 104 °C.

O=C(Cc1cc(I)c(Oc2cc(I)c(OCC3CO3)c(I)c2)c(I)c1)OCC1CO1 (centres undefined) gave a melting point of 116 °C.

CCSC(=O)N(CC(C)C)CC(C)C showed a melting point of 6 °C.

With FC(F)(F)C(F)(F)C(F)(F)C(F)(F)C(F)(F)C(F)(F)C(F)(F)C(F)(F)C(F)(F)C(F)(F)CC[Si](Br)(CCC(F)(F)C(F)(F)C(F)(F)C(F)(F)C(F)(F)C(F)(F)C(F)(F)C(F)(F)C(F)(F)C(F)(F)F)CCC(F)(F)C(F)(F)C(F)(F)C(F)(F)C(F)(F)C(F)(F)C(F)(F)C(F)(F)C(F)(F)C(F)(F)F the melting point was 80 to 81 °C.

Work on CC(=O)OCC1OC(OC2C(COC(C)=O)OC(OC3C(CO)OC(OCCBr)C(O)C3O)C(OC(C)=O)C2OC(C)=O)C(OC(C)=O)C(OC(C)=O)C1OC(C)=O (centres undefined) yielded a melting point of 178 to 180 °C.

In the case of Cc1nn(-c2ccc(C(F)(F)F)cn2)cc1CCCOc1cccc(OC(C)(C)C(=O)O)c1, the melting point is reported as 107 to 108 °C.

For COC(=O)COC1C(NC(C)=O)C(OCc2ccccc2)OC(COCc2ccccc2)C1OC1(N)OC(COCc2ccccc2)C(OCc2ccccc2)C(OCc2ccccc2)C1C(=O)OCC(Cl)(Cl)Cl (centres undefined), the melting point was 176 to 178 °C.

With CCCCC(=O)NC(C)C(=O)NC(C)C(=O)N1CCCC1C(=O)NC(C(=O)OC(O)C(=O)C1(OC(=O)CC)CCC2C3CC(C)C4=CC(=O)C=CC4(C)C3C(O)CC21C)C(C)C (centres undefined) (Pentanoyl-AAPV-X5; configuration not given here) the melting point was 142 °C.

Compound CCN(CC)CCN=S(=O)(c1cccs1)c1cccs1 has a melting point of 131 °C.

CCCCOC(=O)C(C)(C)Oc1ccc(-c2nc(-c3ccc(OC(C)(C)C(=O)OCCCC)cc3O)nc(-c3ccc(OC(C)(C)C(=O)OCCCC)cc3O)n2)c(O)c1 showed a melting point of 86 to 91 °C.

Compound COc1cc(OC)c(/C=C/C(c2ccc(OC)c(NC(=O)c3ccc([N+](=O)[O-])cc3)c2)S(=O)(=O)C(/C=C/c2c(OC)cc(OC)cc2OC)c2ccc(OC)c(NC(=O)c3ccc([N+](=O)[O-])cc3)c2)c(OC)c1 (centres undefined) has a melting point of 206 to 208 °C.

Work on Cc1ccccc1CC(NC(=O)C(CCC(=O)OC(C)(C)C)NC(=O)C(CC(=O)OC(C)(C)C)NC(=O)CCC(=O)OC(C)(C)C)C(=O)NC(C(=O)NC(CC(C)C)C(=O)O)C(C)(C)C (X3-D(OtBu)E(OtBu)[Phe(2-Me)][Tle]L-OH; configuration not given here) yielded a melting point of 235 to 236 °C.

For Cc1c(NC(=O)c2cccc(OCC(=O)NCCNC(=O)COc3cccc(C(=O)O)c3)c2)c2ccccn2c1C(=O)c1ccc(NC(=O)C(F)(F)F)c(C(=O)OCc2ccccc2)c1, the melting point was 197 °C.

Work on Cc1ccc(Br)cc1C yielded a melting point of -0.2 °C.

For CCc1c(CCNC(=O)CCC(=O)CCC(=O)NCCc2ccc(OCc3ccccc3)c(OCc3ccccc3)c2CC)ccc(OCc2ccccc2)c1OCc1ccccc1, the melting point was 188 to 192 °C.

Compound CC#CCOc1ccc(S(=O)(=O)C(C(=O)NO)C2CCCCC2)cc1 (centres undefined) has a melting point of 191 °C.

In the case of Cc1c(Nc2c(C#N)cnc3sc(C4=CCN(C)CC4)cc23)ccc2[nH]ccc12, the melting point is reported as 230 °C.

Compound [C-]#[N+]C(c1cc(Br)c(OC)c(OC)c1)S(=O)(=O)c1ccc(C)cc1 (centres undefined) has a melting point of 109 to 110 °C.

For CC(C)(c1ccc(OCC(O)CN2C(=O)NC3(CC(C)(C)N(CCO)C(C)(C)C3)C2=O)cc1)c1ccc(OCC(O)CN2C(=O)NC3(CC(C)(C)N(CCO)C(C)(C)C3)C2=O)cc1 (centres undefined), the melting point was 233 to 236 °C.

For CCN1CCN(c2ccc(-c3ccnc(Nc4cc(OC)c(OC)c(OC)c4)n3)cn2)CC1, the melting point was 139 °C.

Compound CC(CC(CC(Sc1cc(C(C)(C)C)c(O)c(C(C)(C)C)c1)Sc1cc(C(C)(C)C)c(O)c(C(C)(C)C)c1)Sc1cc(C(C)(C)C)c(O)c(C(C)(C)C)c1)Sc1cc(C(C)(C)C)c(O)c(C(C)(C)C)c1 (centres undefined) has a melting point of 160 to 162 °C.

Compound [C-]#[N+]C(C)C(=O)NCC1CC2CC(C1C)C2(C)C (centres undefined) has a melting point of 58 to 59 °C.

CP(C)CCP(C)C showed a melting point of 0 °C.
